Data published in patent publication US20150104392A1, “COMPOSITIONS, BIOMARKERS AND THEIR USE IN THE TREATMENT OF CANCER” (Aptose Biosciences Inc., priority 2013, published 2015).
pIC50: −log10 of the molar value.

Columns and labels:
HL-60 = assay: Caspase 3 activity, EnzChek Caspase-3 Assay Kit; assay type: cell-based; details: 0.5 μM, 48 hours
Protocol: (§1) THP1 and HL-60 cells were treated with DMSO (vehicle control) or 0.5 μM LOR-253 for 48 hours. Cell lysates were collected using a 1% Triton-X100 lysis. Caspase 3 activity was measured using EnzChek Caspase-3 Assay Kit #1 (Life Technologies) with 5 μg of cell lysastes according to manufacturer's protocol.

THP1 = assay: Caspase 3 activity, EnzChek Caspase-3 Assay Kit; assay type: cell-based; details: 0.5 μM, 48 hours
Protocol: as §1

CYP450 enzymes = assay: CYP450 enzyme inhibition; assay type: in vitro ADME
THP1 cells = assay: BAX/BCL2 expression, quantitative RT-PCR; assay type: cell-based, human; details: 0.5 μM, 48 hours
Protocol: THP1 cells were treated with DMSO (vehicle control) or 0.5 μM LOR-253 for 48 hours. Total RNA was extracted using the TRIzol Plus RNA Purification kit (Ambion, Life Technologies), according to the manufacturer's instructions. First strand cDNA was synthesized from 1-2 ug total RNA using random hexamer primers (Invitrogen) and the SuperScript II Reverse Transcriptase kit (Invitrogen). Quantitative RT-PCR was performed in the ABI Prism 7000 Sequence Detection System using cDNAs and human TaqMan Gene Expression Assay primer/probe sets for BCL2-associated X protein (BAX), B-cell CLL/Lymphoma 2 (BCL2) and the ABI TaqMan Universal PCR master mix protocol. Gene expression was normalized with β-actin gene expression in the same sample, and fold changes in BAX or BCL2 were expressed relative to the corresponding expression level in the DMSO treated samples using the comparative CT method.

H226 xenograft = H226 xenograft model, dose and schedule; assay type: in vivo, mice; details: groups 2, 3 and 4: 10 mg/kg-iv, schedules 3T-12B-3T, 2T-5B-2T, 3T-5B-3T, 2 cycles
cancer cell lines = assay: XTT antiproliferative assay, panel of cancer cell lines (FIG. 3); assay type: cell-based
Protocol: FIG. 3 is a graphical representation of the effect of LOR-253 on proliferation of a number of cancer cell lines in vitro. Cells of various cancer cell lines were incubated with LOR-253 as described in the Examples, and the […] concentrations of various cell lines for 50% of maximal inhibition of cell proliferation (GI50) by LOR-253 were determined and shown in the figure.
Antiproliferative activity of LOR-253 was determined by XTT assay as follows. Adherent cells (2×10^3/well) in 100 μL of growth medium were seeded in 96-well cell culture plates and incubated overnight at 37° C. The medium was removed and replaced with a total volume of 100 μL growth medium containing LOR-253 (or 0.1% DMSO vehicle control), as described in the respective experiments. […] After incubation of the cells at 37° C. for 5 days, cell viability was quantitated with the use of sodium 3′-[1-(phenylamino-carbonyl)-3,4-tetrazolium}-bis(4-methoxy-6-nitro)benzene sulfonic acid hydrate (XTT) colorimetric assay (Roche). […] The plates were further incubated at 37° C. for 4 h, and the absorbance of each well was measured at 490 nm with a multiwell spectrophotometer (Bio-Tek Instruments Inc.). The data were adjusted relative to the blank and expressed as a percentage of cell growth compared with the vehicle control. […]

U266B1 = assay: XTT antiproliferative assay; assay type: cell-based; details: 120 h; U266B1, Multiple myeloma; 5 days incubation
Protocol: (§2) Antiproliferative activity of LOR-253 was determined by XTT assay as follows. Adherent cells (2×10^3/well) in 100 μL of growth medium were seeded in 96-well cell culture plates and incubated overnight at 37° C. The medium was removed and replaced with a total volume of 100 μL growth medium containing LOR-253 (or 0.1% DMSO vehicle control), as described in the respective experiments. Suspension cells were plated (4-6×10^3/well) in 50 μL growth medium, and 50 μL growth medium containing LOR-253 (or 0.1% DMSO vehicle control) was added to each well. After incubation of the cells at 37° C. for 5 days, cell viability was quantitated with the use of sodium 3′-[1-(phenylamino-carbonyl)-3,4-tetrazolium}-bis(4-methoxy-6-nitro)benzene sulfonic acid hydrate (XTT) colorimetric assay (Roche). XTT labeling reagent (1 mg/mL) was mixed with electron-coupling reagent, following the manufacturer's instructions, and 50 μL of the mixture was added directly to the cells. The plates were further incubated at 37° C. for 4 h, and the absorbance of each well was measured at 490 nm with a multiwell spectrophotometer (Bio-Tek Instruments Inc.). The data were adjusted relative to the blank and expressed as a percentage of cell growth compared with the vehicle control. (Ref. Huesca et al., Mol Cancer Ther. 2009. 8:2586-96; Lorus publication on LOR-133)

NOMO-1 = assay: XTT antiproliferative assay; assay type: cell-based; details: Homo sapiens, 120 h; NOMO-1, Acute myeloid leukemia; 5 days incubation
Protocol: as §2

Raji = assay: XTT antiproliferative assay; assay type: cell-based; details: Homo sapiens, 120 h, Non-Hodgkin's Lymphoma, 5 days incubation
Protocol: as §2

CCRF-CEM = assay: XTT antiproliferative assay; assay type: cell-based; details: Homo sapiens, 120 h, Acute lymphoblastic leukemia, 5 days incubation
Protocol: as §2

MM.1R = assay: XTT antiproliferative assay; assay type: cell-based; details: 120 h, Multiple myeloma, 5 days incubation
Protocol: as §2

Kasumi-1 = assay: XTT antiproliferative assay; assay type: cell-based; details: Homo sapiens, 120 h; Kasumi-1, Acute myeloid leukemia; 5 days incubation
Protocol: as §2

EOL-1 = assay: XTT antiproliferative assay; assay type: cell-based; details: Homo sapiens, EOL1, 120 h; EOL-1, Acute myeloid leukemia; 5 days incubation
Protocol: as §2

HuNS1 = assay: XTT antiproliferative assay; assay type: cell-based; details: 120 h; HuNS1, Multiple myeloma; 5 days incubation
Protocol: as §2

THP-1 = assay: XTT antiproliferative assay; assay type: cell-based; details: Homo sapiens, 120 h; THP-1, Acute myeloid leukemia; 5 days incubation
Protocol: as §2

Ramos = assay: XTT antiproliferative assay; assay type: cell-based; details: Homo sapiens, 120 h, Non-Hodgkin's Lymphoma, 5 days incubation
Protocol: as §2

THP-1 cells = assay: FITC-Annexin V / propidium iodide flow cytometry (apoptosis); assay type: cell-based; details: 16 hours
Protocol: THP-1 cells were treated with DMSO, 0.5 or 1 uM of LOR-253 for 16 hours. Cells were washed twice with cold PBS and resuspended Annexin V binding buffer. 1×10^5 cells in 100 μL were stained with FITC-Annexin V and propidium iodide, and incubated for 15 minutes at room temperature. After staining, 400 ul of binding buffer was added and the cells were kept on ice until analyzed on a BD FACSCanto flow cytometer.

`Cc1[nH]c2ccc(F)cc2c1-c1nc2c3cccnc3c3ncccc3c2[nH]1` [LOR-253] was tested, and the “Caspase 3 activity” value (HL-60) was “elevated Caspase 3 activity”, the “Caspase 3 activity” value (THP1) was “elevated Caspase 3 activity” and the “inhibition of CYP450 enzymes” value (CYP450 enzymes) was “no significant inhibition”. The “BAX expression (fold change vs DMSO)” value (THP1 cells) was “Elevation of BAX”, the “BCL2 expression (fold change vs DMSO)” value (THP1 cells) was “repression of BCL2” and the “tumor size, H226 xenograft” value (H226 xenograft) was “effectively treated”. For the same compound, the “sensitivity of cell lines to LOR-253” value (cancer cell lines; cell lines of lung, bladder, colon, prostate cancer, melanoma and breast cancer) was “less sensitive”, the “sensitivity of cell lines to LOR-253” value (cancer cell lines; leukemia/lymphoma incl. AML cell lines (HL-60, MV 411, THP-1, HEL92.1.7, CCRF-CEM, MOLT-4, Jurkat, K-562, Ramos, Raji)) was “most sensitive” and the pIC50 (U266B1) was 6.74. The pIC50 (NOMO-1) was 6.92, the pIC50 (Raji) was 7.96 and the pIC50 (CCRF-CEM) was 7.41. For the same compound, the pIC50 (MM.1R) was 6.82, the pIC50 (Kasumi-1) was 8.16 and the pIC50 (EOL-1) was 7.24. It also gave a pIC50 (HuNS1) of 7.14, a pIC50 (THP-1) of 7.11 and a pIC50 (Ramos) of 6.90. The “Annexin V staining” value (THP-1 cells; 0.5 or 1 uM) was “elevated Annexin V staining” and the “early apoptotic population (Q3: Annexin V+/PI−)” value (THP-1 cells; increasing concentration (0.5 to 1 uM)) was “increase in the early apoptotic population”.
